Holding throughout (format): biochemical
For one test, the target named is PI3Kγ (p120γ)(h) (Homo sapiens, UniProt P48736). Description: Assay for phosphatidylinositol 3-kinase gamma (PI3Kγ) activity, PI3K-HTRF kit. The conditions noted are these: TR-FRET; enzyme 1.45 μg/ml, 10 μM PIP2, 10 μM ATP. On the procedure: (§1) The compounds of the present invention were assayed for the activity of phosphatidylinositol 3-kinase gamma (PI3Kγ) by using a PI3K enzyme-homogenous time resolved fluorescence (PI3K-HTRF) kit, which is available from Upstate (Millipore Co, Billerica, Mass., USA).
PI3Kγ (p120γ)(h), sequence (P48736 whole entry): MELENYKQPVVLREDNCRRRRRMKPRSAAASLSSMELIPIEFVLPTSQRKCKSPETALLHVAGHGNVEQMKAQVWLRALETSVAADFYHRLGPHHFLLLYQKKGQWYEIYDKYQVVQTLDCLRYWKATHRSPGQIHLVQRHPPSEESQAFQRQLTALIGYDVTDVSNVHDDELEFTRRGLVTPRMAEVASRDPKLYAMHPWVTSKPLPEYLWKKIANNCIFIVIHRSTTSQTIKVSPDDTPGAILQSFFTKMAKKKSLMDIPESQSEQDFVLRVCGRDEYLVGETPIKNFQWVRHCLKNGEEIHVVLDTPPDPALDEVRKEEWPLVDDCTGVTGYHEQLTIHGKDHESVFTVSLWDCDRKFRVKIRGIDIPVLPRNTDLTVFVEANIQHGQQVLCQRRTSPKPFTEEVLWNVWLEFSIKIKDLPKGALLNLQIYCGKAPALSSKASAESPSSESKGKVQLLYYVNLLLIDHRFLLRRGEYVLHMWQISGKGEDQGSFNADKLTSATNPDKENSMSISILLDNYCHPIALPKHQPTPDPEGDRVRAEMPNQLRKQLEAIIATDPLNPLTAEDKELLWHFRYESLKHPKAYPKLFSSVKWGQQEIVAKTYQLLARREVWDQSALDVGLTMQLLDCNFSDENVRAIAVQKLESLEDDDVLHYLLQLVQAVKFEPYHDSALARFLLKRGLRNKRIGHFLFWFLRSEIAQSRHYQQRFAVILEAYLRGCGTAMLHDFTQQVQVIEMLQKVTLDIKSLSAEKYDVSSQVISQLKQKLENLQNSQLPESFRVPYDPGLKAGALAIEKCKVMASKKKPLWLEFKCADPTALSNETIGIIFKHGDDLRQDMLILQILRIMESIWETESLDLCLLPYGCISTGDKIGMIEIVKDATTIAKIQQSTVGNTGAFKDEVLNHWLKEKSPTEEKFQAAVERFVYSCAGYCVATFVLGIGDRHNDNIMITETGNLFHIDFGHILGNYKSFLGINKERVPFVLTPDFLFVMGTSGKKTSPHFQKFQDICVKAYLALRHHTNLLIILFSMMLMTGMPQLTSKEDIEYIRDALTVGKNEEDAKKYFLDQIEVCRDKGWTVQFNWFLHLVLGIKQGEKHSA
(§2) Three kinds of buffer solutions including a phosphorylation reaction solution (a reaction buffer containing 40 mM MgCl2 which is available from Upstate was diluted 4 times and added with 5 mM DTT), a stop solution (STOP A and B solutions which are available from Upstate were mixed at a ratio of 3:1) and a fluorescence detection solution (Detection solutions A, B and C which are available from Upstate were mixed at a ratio of 1:1:18) were prepared. 1 mM of PIP2 substrate (phosphatidylinositol 4,5 biphosphate; Upstate), PI3Kγ (#14-558; Upstate) enzyme and 10 mM ATP (Sigma Aldrich Co., St. Louis, Mo., USA) were prepared. Each of PI3Kγ, 1 mM PIP2 and 10 mM ATP was diluted to 2.9 μg/ml (final reaction concentration: 1.45 μg/ml), 20 μM (final reaction concentration: 10 μM) and 40 μM (final reaction concentration: 10 μM), respectively. The buffer solution used for dilution and preparation process was the phosphorylation reaction solution. The stop solution was used for the termination of phosphorylation reaction, and the fluorescence detection solution was used for the detection of time-resolved fluorescence signals.
(§3) Each test sample was transferred to a 384 well low flange white flat bottom microplate (#3572, Corning Life Sciences, Lowell, Mass., USA) by using a multi 8-channel (Pipetman Neo multi 8×20, Gilson, Middleton, Wis., USA) to make a final phosphorylation reaction volume of 20 μl per each well. For the negative control, 5 μl of 14.4% DMSO and 10 μl of PIP2 substration solution were used, and 5 μl of 14.4% DMSO and 10 μl of PIP2/PI3Kγ mixed solution were used as the positive control. For the test group, 5 μl of a solution prepared by dissolving the compound obtained in Example in DMSO and 10 μl of PIP2/PI3Kγ mixed solution were used. Before the initiation of the phosphorylation reaction, sample compounds were pretreated with the enzyme for approximately 10 minutes, and then the phosphorylation reaction was induced by adding 5 μl of ATP. Since each of the test compound and ATP takes up 25% of the total volume, and PIP2 and PI3Kγ take up 50% of the total volume during the reaction, each solution was concentrated 4 and 2 times, respectively, before mixing the solutions. Subsequently, the test sample was gently shook for 3 minutes and subjected to a phosphorylation reaction for 90 minutes at room temperature, which was then added with 5 μl of the stop solution to terminate the phosphorylation reaction. In order to induce a time-resolved fluorescence reaction, 5 μl of the fluorescence detection solution was added to the sample. The fluorescence detection solution contains biotin-phosphatidylinositol 3,4,5-triphosphate (PIP3), streptavidin-labeled Allopycocyanin (APC) and europium-labeled Pleckstrin homology domain (the PIP3 binds to PH domain), and the time-resolved fluorescence reaction is induced by a series of reaction of PH domain and PIP3, and biotin and streptavidin. The sample was left to stand for 6 hours at room temperature, and the time-resolved fluorescence resonance energy transfer (TR-FRET) rate was measured (emission wavelength: 665 nm, 620 nm, excitation wavelength: 340 nm) by using a Flexstation3 Micro plate reader (Molecular Devices, USA). TR-FRET Rate and TR-Inhibition Rate were calculated based on Equations 1 and 2 below, and the results are expressed in IC50, which is the concentration of a compound that inhibits 50% of PI3Kγ activity in vitro. TR-FRET Rate=(665 nm emission wavelength/620 nm emission wavelength)×10000 <Equation 1> TR-FRET Inhibition Rate=[(TR-FRET Rate of Sample−TR-FRET Rate of Negative Control)/(TR-FRET Rate of Positive Control−TR-FRET Rate of Negative Control)]×100 <Equation 2>

The next test concerns the target PI3Kα (p110α/p85α)(h) (Homo sapiens, UniProt P42336). Description: Assay for phosphatidylinositol 3-kinase alpha (PI3Kα) activity, PI3K-HTRF kit. The conditions noted are these: TR-FRET; enzyme 0.3625 μg/ml, 10 μM PIP2, 10 μM ATP. Here is the method:
[The source words this procedure for another target and says it was used here with some conditions changed.] as §1, §2, §3
For orientation: In TR-FRET formats the signal depends on donor and acceptor labels being close together.

For a further test, the target named is PI3K β (p110β/p85α)(h) (Homo sapiens, UniProt P42338). Put plainly: Assay for phosphatidylinositol 3-kinase beta (PI3Kβ) activity, PI3K-HTRF kit. The conditions noted are these: TR-FRET; enzyme 0.725 μg/ml, 10 μM PIP2, 10 μM ATP. Here is the method:
[The source words this procedure for another target and says it was used here with some conditions changed.] as §1, §2
as §3, with “2> […]” for “2>”

A further test deals with PI3Kδ (p110δ/p85α)(h) (Homo sapiens, UniProt O00329). Description: Assay for phosphatidylinositol 3-kinase delta (PI3Kδ) activity, PI3K-HTRF kit. The conditions noted are these: TR-FRET; enzyme 0.725 μg/ml, 10 μM PIP2, 10 μM ATP. Here is the method: [The source words this procedure for another target and says it was used here with some conditions changed.] as §1, §2
PI3Kδ (p110δ/p85α)(h), sequence (O00329 whole entry): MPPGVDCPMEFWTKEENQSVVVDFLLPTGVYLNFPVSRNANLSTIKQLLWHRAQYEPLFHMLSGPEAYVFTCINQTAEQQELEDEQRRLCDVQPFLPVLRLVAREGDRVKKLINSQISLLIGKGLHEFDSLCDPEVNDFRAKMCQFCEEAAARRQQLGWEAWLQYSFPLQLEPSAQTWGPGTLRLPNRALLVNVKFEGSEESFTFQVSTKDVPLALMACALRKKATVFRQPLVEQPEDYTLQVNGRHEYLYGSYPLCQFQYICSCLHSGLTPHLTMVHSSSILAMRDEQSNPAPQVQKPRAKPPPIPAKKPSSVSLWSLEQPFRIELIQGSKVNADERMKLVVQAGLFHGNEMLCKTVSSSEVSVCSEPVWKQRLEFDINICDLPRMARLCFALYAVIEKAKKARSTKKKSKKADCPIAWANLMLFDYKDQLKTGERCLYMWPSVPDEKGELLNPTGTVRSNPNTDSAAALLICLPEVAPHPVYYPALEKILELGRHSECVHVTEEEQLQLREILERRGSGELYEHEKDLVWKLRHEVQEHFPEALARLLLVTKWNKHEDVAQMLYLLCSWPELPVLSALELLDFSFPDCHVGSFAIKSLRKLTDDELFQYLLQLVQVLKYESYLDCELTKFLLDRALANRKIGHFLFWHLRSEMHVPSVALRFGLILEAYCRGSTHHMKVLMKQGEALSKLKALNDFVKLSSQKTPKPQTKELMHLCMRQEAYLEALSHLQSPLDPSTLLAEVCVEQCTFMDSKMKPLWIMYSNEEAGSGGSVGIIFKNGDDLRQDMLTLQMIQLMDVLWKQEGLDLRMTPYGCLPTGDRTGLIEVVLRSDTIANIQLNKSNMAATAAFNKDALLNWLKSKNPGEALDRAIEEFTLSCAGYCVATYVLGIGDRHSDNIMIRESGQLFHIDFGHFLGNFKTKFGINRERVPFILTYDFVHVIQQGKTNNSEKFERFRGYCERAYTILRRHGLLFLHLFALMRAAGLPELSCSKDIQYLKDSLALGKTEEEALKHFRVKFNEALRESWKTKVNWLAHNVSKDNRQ
PI3Kδ (p110δ/p85α)(h), sequence (P27986 whole entry partner): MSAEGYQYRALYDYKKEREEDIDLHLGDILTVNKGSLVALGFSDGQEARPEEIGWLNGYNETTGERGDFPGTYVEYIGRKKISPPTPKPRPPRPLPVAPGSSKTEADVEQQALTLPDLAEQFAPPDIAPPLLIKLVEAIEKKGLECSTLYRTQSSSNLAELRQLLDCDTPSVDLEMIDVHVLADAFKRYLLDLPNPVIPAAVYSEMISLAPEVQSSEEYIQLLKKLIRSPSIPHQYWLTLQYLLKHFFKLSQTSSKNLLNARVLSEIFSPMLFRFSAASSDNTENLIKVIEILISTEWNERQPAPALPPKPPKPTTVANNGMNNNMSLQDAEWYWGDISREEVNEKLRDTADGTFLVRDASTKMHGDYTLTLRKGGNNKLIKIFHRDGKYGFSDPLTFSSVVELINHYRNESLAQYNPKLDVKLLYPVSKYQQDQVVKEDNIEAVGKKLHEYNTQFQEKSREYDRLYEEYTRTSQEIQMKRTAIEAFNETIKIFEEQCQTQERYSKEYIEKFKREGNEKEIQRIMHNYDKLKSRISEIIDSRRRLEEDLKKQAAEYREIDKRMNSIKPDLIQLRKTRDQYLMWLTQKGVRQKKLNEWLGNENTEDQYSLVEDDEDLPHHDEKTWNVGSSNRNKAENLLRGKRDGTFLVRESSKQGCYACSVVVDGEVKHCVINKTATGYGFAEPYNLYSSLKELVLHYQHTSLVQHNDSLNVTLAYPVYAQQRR
as §3, with “2> […]” for “2>”

PI3Kα (p110α/p85α)(h), sequence (P42336 whole entry): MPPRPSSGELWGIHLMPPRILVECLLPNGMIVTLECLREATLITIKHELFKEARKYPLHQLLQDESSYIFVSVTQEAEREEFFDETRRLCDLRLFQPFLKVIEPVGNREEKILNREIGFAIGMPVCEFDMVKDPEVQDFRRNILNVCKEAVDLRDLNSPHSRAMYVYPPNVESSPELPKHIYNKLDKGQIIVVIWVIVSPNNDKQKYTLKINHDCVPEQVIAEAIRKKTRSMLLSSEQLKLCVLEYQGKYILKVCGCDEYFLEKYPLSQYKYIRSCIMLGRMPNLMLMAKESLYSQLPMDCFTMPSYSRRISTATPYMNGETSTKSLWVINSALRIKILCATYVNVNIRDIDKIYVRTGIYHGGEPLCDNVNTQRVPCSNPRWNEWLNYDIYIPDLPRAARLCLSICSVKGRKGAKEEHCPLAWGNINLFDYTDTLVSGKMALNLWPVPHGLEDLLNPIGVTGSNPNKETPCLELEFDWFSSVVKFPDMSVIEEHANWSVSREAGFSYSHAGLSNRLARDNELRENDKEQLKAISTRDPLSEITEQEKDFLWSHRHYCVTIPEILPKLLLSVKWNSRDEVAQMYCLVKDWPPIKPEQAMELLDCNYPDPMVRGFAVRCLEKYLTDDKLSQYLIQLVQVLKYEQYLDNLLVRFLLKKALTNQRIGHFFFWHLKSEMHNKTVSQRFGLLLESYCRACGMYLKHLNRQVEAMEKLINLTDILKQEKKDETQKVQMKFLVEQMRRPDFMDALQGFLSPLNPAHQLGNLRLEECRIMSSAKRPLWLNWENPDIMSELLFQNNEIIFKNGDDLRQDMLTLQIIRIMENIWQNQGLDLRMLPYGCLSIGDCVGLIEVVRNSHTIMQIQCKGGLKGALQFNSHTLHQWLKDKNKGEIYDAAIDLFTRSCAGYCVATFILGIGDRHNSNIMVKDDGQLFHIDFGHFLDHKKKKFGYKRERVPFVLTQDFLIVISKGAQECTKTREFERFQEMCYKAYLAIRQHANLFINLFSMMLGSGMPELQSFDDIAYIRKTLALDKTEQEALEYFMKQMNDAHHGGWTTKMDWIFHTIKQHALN
PI3Kα (p110α/p85α)(h), sequence (P27986 whole entry partner): as the sequence (P27986 whole entry partner) above
PI3K β (p110β/p85α)(h), sequence (P42338 whole entry): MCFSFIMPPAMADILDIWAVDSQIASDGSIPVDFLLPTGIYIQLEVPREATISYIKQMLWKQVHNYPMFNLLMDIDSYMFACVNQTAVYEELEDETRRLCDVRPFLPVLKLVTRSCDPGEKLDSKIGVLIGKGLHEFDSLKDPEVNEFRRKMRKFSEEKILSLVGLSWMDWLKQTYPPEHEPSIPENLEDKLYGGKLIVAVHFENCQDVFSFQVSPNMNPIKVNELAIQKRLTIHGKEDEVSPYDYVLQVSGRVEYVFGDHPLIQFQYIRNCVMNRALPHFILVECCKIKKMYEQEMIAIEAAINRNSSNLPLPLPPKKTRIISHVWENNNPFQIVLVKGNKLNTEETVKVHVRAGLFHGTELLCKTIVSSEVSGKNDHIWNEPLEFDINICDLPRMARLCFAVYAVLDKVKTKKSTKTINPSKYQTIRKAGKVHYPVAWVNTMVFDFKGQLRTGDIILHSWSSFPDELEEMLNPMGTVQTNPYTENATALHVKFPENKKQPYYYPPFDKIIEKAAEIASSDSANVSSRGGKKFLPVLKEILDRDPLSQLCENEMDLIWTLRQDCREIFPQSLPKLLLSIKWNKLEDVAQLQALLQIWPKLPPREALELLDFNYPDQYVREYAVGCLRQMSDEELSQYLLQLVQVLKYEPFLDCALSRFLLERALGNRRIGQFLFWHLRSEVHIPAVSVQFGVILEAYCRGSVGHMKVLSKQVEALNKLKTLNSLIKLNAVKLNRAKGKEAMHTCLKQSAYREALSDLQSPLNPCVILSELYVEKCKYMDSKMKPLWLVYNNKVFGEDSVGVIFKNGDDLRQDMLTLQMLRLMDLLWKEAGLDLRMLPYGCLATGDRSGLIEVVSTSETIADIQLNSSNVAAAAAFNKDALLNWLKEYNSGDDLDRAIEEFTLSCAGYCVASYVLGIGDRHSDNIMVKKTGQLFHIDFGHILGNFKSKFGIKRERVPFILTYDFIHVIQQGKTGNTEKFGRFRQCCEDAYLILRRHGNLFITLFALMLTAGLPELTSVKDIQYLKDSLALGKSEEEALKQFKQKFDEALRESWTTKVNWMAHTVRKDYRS
PI3K β (p110β/p85α)(h), sequence (P27986 whole entry partner): as the sequence (P27986 whole entry partner) above

“2-Thioxo-5-[{7-(m-tolylethynyl)furo[3,2-c]pyridin-2-yl}methyl]thiazolidin-4-one [Example 546]”: the half-maximal inhibitory concentration (IC50) (as a rule, the concentration at which inhibition is half-maximal) at PI3Kγ (p120γ)(h) was 3 nM; on PI3Kα (p110α/p85α)(h), 360 nM; on PI3K β (p110β/p85α)(h), 5500 nM; on PI3Kδ (p110δ/p85α)(h), greater than 10000 nM.

As to “5-[{7-(p-Tolylethynyl)furo[3,2-c]pyridin-2-yl}methyl]thiazolidine-2,4-dione [Example 520]”, the IC50 is 11 nM at PI3Kγ (p120γ)(h), 15 nM against PI3Kα (p110α/p85α)(h), 9740 nM against PI3K β (p110β/p85α)(h) and greater than 10000 nM against PI3Kδ (p110δ/p85α)(h).

In the case of `O=C1NC(=O)/C(=C/c2cc3cncc(-c4ccc(F)cc4F)c3o2)S1` [Example 2, (Z)-5-[{7-(2,4-Difluorophenyl)furo[3,2-c]pyridin-2-yl}methylene]thiazolidine-2,4-dione], the IC50 against PI3Kγ (p120γ)(h) was 654 nM; against PI3Kα (p110α/p85α)(h) it was 35 nM; on PI3K β (p110β/p85α)(h), 208 nM; at PI3Kδ (p110δ/p85α)(h) it was 117 nM.

As for `O=C1NC(=O)/C(=C/c2cc3cncc(-c4cccc(OCc5ccccc5)c4)c3o2)S1` [Example 6, (Z)-5-([7-{3-(Benzyloxy)phenyl}furo[3,2-c]pyridin-2-yl]methylene)thiazolidine-2,4-dione], the IC50 is 14 nM against PI3Kγ (p120γ)(h), 2 nM on PI3Kα (p110α/p85α)(h), 3 nM against PI3K β (p110β/p85α)(h) and 2350 nM on PI3Kδ (p110δ/p85α)(h).

Consider `O=C1NC(=O)/C(=C/c2cc3cncc(-c4ccc(O)nc4)c3o2)S1` [Example 11, (Z)-5-[{7-(6-Hydroxypyridin-3-yl)furo[3,2-c]pyridin-2-yl}methylene]thiazolidine-2,4-dione], for which the IC50 against PI3Kγ (p120γ)(h) was determined as 15 nM; against PI3Kα (p110α/p85α)(h) it was 8 nM; at PI3K β (p110β/p85α)(h), 48 nM; against PI3Kδ (p110δ/p85α)(h) it was 168 nM.

As to `Cn1cc(-c2cncc3cc(/C=C4\SC(=O)NC4=O)oc23)cn1` [Example 12, (Z)-5-[{7-(1-Methyl-1H-pyrazol-4-yl)furo[3,2-c]pyridin-2-yl}methylene]thiazolidine-2,4-dione], the IC50 is 28 nM on PI3Kγ (p120γ)(h), 7 nM against PI3Kα (p110α/p85α)(h), 572 nM against PI3K β (p110β/p85α)(h) and greater than 10000 nM at PI3Kδ (p110δ/p85α)(h).

For the molecule `O=C1NC(=O)/C(=C/c2cc3cncc(-c4cc5ccccc5s4)c3o2)S1` [Example 14, (Z)-5-[{7-(Benzo[b]thiophen-2-yl)furo[3,2-c]pyridin-2-yl}methylene]thiazolidine-2,4-dione], the IC50 was 29 nM against PI3Kγ (p120γ)(h), 6 nM against PI3Kα (p110α/p85α)(h), greater than 10000 nM against PI3K β (p110β/p85α)(h) and 149 nM against PI3Kδ (p110δ/p85α)(h).

Turning to `CSc1ccc(-c2cncc3cc(/C=C4\SC(=O)NC4=O)oc23)cc1` [Example 23, (Z)-5-([7-{4-(Methylthio)phenyl}furo[3,2-c]pyridin-2-yl]methylene)thiazolidine-2,4-dione], the IC50 on PI3Kγ (p120γ)(h) is 9 nM; against PI3Kα (p110α/p85α)(h) it was 43 nM; against PI3K β (p110β/p85α)(h) it was greater than 10000 nM; against PI3Kδ (p110δ/p85α)(h), greater than 10000 nM.

In the case of `COc1ccc(-c2cncc3cc(/C=C4\SC(=O)NC4=O)oc23)cc1` [Example 25, (Z)-5-[{7-(4-Methoxyphenyl)furo[3,2-c]pyridin-2-yl}methylene]thiazolidine-2,4-dione], the IC50 at PI3Kγ (p120γ)(h) was 5 nM; against PI3Kα (p110α/p85α)(h), 6 nM; against PI3K β (p110β/p85α)(h) it was greater than 10000 nM; at PI3Kδ (p110δ/p85α)(h), greater than 10000 nM.

Consider `COc1ccc(-c2cncc3cc(/C=C4\SC(=O)NC4=O)oc23)cn1` [Example 30, (Z)-5-[{7-(6-Methoxypyridin-3-yl)furo[3,2-c]pyridin-2-yl}methylene]thiazolidine-2,4-dione], for which the IC50 was 6 nM against PI3Kγ (p120γ)(h), 40 nM against PI3Kα (p110α/p85α)(h), 1370 nM against PI3K β (p110β/p85α)(h) and 460 nM on PI3Kδ (p110δ/p85α)(h).

In the case of `COc1ccc(-c2cncc3cc(/C=C4\SC(=O)NC4=O)oc23)cc1OC` [Example 33, (Z)-5-[{7-(3,4-Dimethoxyphenyl)furo[3,2-c]pyridin-2-yl}methylene]thiazolidine-2,4-dione], the IC50 against PI3Kγ (p120γ)(h) worked out at 9 nM; on PI3Kα (p110α/p85α)(h), 8 nM; at PI3K β (p110β/p85α)(h) it was 77 nM; on PI3Kδ (p110δ/p85α)(h), 37 nM.

With `O=C1NC(=O)/C(=C/c2cc3cncc(-c4ccc5c(c4)OCO5)c3o2)S1` [Example 36, (Z)-5-[{7-(Benzo[d][1,3]dioxol-5-yl)furo[3,2-c]pyridin-2-yl}methylene]thiazolidine-2,4-dione], the IC50 against PI3Kγ (p120γ)(h) is 154 nM; against PI3Kα (p110α/p85α)(h), 86 nM; on PI3K β (p110β/p85α)(h) it was 14 nM; at PI3Kδ (p110δ/p85α)(h), greater than 10000 nM.

On to `CS(=O)(=O)c1ccc(-c2cncc3cc(/C=C4\SC(=O)NC4=O)oc23)cc1` [Example 40, (Z)-5-([7-{4-(Methylsulfonyl)phenyl}furo[3,2-c]pyridin-2-yl]methylene)thiazolidine-2,4-dione], for which the IC50 against PI3Kγ (p120γ)(h) worked out at 28 nM; against PI3Kα (p110α/p85α)(h) it was 8 nM; against PI3K β (p110β/p85α)(h), 177 nM; against PI3Kδ (p110δ/p85α)(h), 590 nM.

As for `O=C1NC(=O)/C(=C/c2cc3cncc(-c4cccc(OCC(F)(F)F)c4)c3o2)S1` [Example 110, (Z)-5-([7-{3-(2,2,2-Trifluoroethoxyl)phenyl}furo[3,2-c]pyridin-2-yl]methylene)thiazolidine-2,4-dione], the IC50 is 96 nM at PI3Kγ (p120γ)(h), 293 nM against PI3K β (p110β/p85α)(h) and 4230 nM on PI3Kδ (p110δ/p85α)(h).
